The values that follow come from ChEMBL document CHEMBL1201862, “PubChem BioAssay data set” (2004).

The source made the active and inactive calls. Bounds are passed on as bounds.

The target of test [1] is Glucose-6-phosphate 1-dehydrogenase (Homo sapiens, UniProt P11413). Briefly: human G6PD enzyme inhibitors, dose response, selectivity assay for P. falciparum G6PD inhibitor project, biochemical, fluorescence (AID 504792). It is filed as functional.
For test [2], the target named is Peroxisome proliferator-activated receptor gamma/Nuclear receptor coactivator 2 (Homo sapiens, UniProt P37231). It is filed as functional.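 Also: agonist potency for raising coactivator recruitment to the receptor.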
Sequence of Peroxisome proliferator-activated receptor gamma/Nuclear receptor coactivator 2 (P37231 whole entry): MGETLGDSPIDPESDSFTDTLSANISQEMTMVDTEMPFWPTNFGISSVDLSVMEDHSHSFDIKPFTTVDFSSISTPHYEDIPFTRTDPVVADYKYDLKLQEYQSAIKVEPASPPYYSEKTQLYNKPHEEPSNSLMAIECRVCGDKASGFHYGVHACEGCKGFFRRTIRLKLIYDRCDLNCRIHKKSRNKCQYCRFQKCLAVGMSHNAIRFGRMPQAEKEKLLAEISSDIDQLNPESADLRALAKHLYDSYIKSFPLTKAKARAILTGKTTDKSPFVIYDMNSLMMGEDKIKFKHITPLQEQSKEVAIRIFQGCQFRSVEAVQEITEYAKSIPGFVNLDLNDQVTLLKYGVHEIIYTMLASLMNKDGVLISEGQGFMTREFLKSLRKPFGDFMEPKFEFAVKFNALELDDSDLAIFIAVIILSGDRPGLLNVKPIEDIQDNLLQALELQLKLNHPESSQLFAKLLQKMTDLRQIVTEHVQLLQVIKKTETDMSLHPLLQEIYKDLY
Sequence of Peroxisome proliferator-activated receptor gamma/Nuclear receptor coactivator 2 (Q15596 whole entry, further chain): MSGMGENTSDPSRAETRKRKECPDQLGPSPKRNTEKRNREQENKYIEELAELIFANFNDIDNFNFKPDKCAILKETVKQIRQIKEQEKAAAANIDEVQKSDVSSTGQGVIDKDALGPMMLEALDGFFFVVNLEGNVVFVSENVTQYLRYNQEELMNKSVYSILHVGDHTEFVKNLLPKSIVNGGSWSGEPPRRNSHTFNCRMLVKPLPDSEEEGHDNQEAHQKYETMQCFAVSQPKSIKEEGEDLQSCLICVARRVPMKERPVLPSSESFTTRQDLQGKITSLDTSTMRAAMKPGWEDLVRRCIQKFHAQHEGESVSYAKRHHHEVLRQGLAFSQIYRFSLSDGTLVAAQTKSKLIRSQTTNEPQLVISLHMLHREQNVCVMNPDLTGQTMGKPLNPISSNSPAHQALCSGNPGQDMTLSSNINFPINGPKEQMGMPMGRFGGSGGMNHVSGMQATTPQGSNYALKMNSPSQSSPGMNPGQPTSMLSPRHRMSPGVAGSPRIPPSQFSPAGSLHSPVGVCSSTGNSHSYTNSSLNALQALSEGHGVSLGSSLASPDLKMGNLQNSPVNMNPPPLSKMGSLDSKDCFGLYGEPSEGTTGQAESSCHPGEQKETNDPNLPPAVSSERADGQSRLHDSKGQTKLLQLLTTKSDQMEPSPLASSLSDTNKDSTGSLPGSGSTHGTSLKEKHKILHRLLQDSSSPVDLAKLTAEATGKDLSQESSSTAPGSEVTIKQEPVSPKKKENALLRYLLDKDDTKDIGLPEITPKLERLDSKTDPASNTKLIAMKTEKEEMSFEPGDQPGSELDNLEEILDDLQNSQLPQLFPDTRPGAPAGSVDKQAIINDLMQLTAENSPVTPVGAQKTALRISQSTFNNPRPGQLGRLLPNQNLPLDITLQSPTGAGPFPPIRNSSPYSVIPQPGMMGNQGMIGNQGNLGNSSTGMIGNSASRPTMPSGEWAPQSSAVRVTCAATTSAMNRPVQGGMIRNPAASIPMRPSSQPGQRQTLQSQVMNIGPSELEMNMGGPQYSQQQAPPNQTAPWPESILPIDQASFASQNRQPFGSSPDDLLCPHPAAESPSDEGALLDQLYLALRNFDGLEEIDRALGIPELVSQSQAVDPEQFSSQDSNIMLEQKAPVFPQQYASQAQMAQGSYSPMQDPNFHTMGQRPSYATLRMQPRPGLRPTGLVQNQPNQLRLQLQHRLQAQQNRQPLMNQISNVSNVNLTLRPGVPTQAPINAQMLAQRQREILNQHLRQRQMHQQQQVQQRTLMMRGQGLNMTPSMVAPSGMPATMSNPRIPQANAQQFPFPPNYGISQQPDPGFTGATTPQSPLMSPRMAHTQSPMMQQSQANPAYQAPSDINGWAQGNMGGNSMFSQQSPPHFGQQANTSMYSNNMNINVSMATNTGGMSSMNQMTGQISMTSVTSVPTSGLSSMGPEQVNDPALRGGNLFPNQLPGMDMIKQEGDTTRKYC
The target of test [3] is Peroxisome proliferator-activated receptor gamma/Nuclear receptor coactivator 1 (Homo sapiens, UniProt P37231). It is filed as functional.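 Also: agonist potency as compounds enhance coactivator SRC-1 recruitment to PPARgamma.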
The target in test [4] is Peroxisome proliferator-activated receptor gamma/Nuclear receptor coactivator 3 (Homo sapiens, UniProt P37231). It is filed as functional.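 Also: agonist potency for raising coactivator recruitment to the receptor.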
Sequence of Peroxisome proliferator-activated receptor gamma/Nuclear receptor coactivator 3 (P37231 whole entry): as the sequence (P37231 whole entry) above
Sequence of Peroxisome proliferator-activated receptor gamma/Nuclear receptor coactivator 3 (Q9Y6Q9 whole entry, further chain): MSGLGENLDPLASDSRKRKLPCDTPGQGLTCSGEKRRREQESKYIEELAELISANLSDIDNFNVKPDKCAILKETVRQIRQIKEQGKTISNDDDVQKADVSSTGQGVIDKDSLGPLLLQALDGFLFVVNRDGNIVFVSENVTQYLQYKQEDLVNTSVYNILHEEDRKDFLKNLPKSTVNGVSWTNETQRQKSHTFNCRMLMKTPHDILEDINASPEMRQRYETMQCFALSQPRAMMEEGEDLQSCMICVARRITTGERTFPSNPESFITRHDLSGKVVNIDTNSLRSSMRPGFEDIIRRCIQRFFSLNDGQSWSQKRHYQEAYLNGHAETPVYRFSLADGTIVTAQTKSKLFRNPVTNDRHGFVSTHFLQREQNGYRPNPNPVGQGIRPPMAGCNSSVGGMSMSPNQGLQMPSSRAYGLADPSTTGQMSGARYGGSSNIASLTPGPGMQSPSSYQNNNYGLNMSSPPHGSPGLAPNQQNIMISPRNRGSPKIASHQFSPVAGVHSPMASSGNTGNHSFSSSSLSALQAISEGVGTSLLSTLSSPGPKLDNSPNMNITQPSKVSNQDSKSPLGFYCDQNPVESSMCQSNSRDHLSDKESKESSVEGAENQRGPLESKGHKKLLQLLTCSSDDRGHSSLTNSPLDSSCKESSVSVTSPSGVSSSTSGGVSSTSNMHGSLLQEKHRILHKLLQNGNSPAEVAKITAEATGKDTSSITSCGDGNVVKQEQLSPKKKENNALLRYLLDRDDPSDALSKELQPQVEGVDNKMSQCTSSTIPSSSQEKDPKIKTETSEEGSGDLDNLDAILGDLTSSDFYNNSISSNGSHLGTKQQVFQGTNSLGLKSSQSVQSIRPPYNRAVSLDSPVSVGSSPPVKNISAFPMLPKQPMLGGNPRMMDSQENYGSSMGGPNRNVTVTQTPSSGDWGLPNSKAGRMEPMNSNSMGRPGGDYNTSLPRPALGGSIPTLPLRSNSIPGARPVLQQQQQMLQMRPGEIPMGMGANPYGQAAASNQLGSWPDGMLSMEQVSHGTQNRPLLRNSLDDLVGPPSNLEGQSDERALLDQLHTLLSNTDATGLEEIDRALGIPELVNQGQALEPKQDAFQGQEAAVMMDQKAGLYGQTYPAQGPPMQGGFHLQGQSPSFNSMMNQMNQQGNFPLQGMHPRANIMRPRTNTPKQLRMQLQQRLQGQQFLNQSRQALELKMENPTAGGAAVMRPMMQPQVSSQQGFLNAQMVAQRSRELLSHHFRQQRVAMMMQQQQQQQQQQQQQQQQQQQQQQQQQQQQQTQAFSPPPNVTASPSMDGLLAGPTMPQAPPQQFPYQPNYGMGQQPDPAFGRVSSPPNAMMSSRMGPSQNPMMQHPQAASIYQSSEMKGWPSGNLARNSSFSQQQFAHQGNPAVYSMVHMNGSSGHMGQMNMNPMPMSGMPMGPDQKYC
A short description of test [5]: cells. It is filed as functional, cell-based.
The nature of test [6]: cells. It is filed as functional, cell-based. This is another data set of the same source.
In test [7] the target is Voltage-dependent T-type calcium channel subunit alpha-1H (Homo sapiens, UniProt O95180). It is filed as functional.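 Also: channel activity triggered by adding a high calcium stimulation buffer.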
In test [8] the target is T1, Coagulation factor XII (Homo sapiens, UniProt P00748).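 Also: activated factor XIIa alpha cleaving a fluorogenic AMC peptide substrate; inhibitor potency from loss of enzyme activity.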
T1 sequence (P00748 whole entry): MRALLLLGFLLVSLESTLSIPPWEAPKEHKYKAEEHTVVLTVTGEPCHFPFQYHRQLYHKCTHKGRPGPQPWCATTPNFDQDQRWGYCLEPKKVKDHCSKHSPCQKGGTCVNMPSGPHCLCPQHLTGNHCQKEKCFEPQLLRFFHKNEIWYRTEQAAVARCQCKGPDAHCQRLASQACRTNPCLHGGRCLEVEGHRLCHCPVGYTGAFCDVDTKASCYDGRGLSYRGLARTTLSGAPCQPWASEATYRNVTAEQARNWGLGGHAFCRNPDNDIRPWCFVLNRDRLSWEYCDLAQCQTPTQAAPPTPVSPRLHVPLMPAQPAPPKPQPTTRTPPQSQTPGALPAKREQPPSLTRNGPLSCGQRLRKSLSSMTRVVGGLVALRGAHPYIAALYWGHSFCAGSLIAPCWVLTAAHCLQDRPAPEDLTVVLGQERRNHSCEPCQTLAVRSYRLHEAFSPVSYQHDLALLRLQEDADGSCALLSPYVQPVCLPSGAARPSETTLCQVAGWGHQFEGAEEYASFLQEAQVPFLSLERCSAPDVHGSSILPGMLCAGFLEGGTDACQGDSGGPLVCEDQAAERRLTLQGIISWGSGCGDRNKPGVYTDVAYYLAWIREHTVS
It is filed as functional.

Test [9] in a line: microbe, parasite or virus in culture. It is filed as functional. The conditions noted are these: Mycobacterium tuberculosis.
Test [10] concerns the target T2, Replicative DNA helicase DnaB (Mycobacterium tuberculosis, UniProt P9WMR3).
T2 sequence (P9WMR3 whole entry): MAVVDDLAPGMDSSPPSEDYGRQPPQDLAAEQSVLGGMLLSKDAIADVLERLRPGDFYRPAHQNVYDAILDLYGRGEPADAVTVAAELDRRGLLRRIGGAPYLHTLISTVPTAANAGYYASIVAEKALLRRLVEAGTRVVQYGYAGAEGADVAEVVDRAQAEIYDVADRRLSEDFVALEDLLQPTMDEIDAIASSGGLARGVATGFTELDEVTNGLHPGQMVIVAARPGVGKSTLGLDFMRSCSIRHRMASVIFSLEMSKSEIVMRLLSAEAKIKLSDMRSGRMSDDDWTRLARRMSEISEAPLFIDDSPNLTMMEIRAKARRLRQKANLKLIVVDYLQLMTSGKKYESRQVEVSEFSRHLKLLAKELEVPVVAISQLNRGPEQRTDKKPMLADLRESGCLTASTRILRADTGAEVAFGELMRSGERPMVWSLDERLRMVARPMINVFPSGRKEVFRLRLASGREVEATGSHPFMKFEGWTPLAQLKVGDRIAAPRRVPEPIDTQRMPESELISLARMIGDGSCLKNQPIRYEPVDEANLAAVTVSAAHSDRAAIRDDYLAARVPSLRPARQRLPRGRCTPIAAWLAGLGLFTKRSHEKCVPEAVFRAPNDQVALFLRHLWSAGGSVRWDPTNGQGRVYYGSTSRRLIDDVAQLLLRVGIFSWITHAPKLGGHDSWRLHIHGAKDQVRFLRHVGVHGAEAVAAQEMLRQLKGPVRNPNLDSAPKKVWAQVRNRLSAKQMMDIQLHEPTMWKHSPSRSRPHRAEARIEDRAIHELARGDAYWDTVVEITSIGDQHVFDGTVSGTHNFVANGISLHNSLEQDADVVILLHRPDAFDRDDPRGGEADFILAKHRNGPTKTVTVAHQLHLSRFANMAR
The test can be described thus: DnaB intein splicing inhibitors, dose response, biochemical, cell-free fluorescence (AID 449749). It is filed as functional.

Test [11] has as its target T3, Protein RecA (Mycobacterium tuberculosis, UniProt P9WHJ3).
T3 sequence (P9WHJ3 whole entry): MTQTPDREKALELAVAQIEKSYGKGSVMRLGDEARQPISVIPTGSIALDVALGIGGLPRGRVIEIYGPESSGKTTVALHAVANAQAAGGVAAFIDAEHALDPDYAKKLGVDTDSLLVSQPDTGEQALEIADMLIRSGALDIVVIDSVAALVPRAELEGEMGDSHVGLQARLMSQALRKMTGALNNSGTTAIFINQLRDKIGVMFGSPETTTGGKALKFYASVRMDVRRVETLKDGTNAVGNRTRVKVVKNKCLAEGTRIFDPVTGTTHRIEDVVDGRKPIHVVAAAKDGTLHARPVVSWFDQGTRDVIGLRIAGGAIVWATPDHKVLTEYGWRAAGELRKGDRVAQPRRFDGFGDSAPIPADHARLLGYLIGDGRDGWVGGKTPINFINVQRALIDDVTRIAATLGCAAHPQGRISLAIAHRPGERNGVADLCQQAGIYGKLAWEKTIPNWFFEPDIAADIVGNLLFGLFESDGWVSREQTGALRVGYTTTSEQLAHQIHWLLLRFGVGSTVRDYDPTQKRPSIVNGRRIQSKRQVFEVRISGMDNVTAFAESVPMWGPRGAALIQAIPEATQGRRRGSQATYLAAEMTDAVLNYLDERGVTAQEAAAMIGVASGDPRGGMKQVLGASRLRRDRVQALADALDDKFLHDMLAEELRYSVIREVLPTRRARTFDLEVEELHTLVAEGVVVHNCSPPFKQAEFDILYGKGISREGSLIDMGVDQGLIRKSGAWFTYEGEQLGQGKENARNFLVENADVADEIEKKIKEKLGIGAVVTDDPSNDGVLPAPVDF
Briefly: Fluorescence Cell-Free Homogeneous Dose Retest to Identify Inhibitors of RecA-Intein Splicing Activity. [Related pubchem assays (depositor defined):AID2097, AID2223, AID489010, AID492950]. It is filed as functional.

For test [12], the target named is T4, Corticotropin-releasing factor receptor 2/Corticotropin-releasing factor-binding protein (Homo sapiens, UniProt P24387+Q13324).
T4 sequence (Q13324 whole entry): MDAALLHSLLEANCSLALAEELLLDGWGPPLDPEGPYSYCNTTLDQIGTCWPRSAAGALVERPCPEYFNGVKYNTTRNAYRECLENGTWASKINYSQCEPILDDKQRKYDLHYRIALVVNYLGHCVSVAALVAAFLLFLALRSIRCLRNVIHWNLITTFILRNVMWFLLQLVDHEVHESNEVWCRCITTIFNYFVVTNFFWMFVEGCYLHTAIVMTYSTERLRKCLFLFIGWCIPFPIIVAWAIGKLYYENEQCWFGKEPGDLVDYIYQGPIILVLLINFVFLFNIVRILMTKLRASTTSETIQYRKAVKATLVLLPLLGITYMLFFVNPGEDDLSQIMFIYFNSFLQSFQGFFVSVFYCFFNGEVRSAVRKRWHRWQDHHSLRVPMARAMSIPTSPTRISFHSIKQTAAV
T4 sequence (P24387 whole entry): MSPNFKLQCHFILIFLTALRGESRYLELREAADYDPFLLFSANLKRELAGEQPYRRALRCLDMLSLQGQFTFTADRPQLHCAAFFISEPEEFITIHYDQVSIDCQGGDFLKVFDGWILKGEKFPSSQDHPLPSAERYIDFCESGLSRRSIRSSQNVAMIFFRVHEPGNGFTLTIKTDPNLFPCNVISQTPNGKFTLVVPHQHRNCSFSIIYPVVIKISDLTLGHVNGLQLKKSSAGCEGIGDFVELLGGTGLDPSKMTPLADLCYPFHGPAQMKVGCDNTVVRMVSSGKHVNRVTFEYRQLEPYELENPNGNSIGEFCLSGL
Briefly: Dose Response confirmation of uHTS hits for small molecule antagonists of the CRF-binding protein and CRF-R2 receptor complex. It is filed as functional. The settings on record: read-out: IC50_Mean.

Test [13] deals with T4, Corticotropin-releasing factor receptor 2/Corticotropin-releasing factor-binding protein. Briefly: activators of CRF receptor 2 with binding protein – uHTS hits, confirmation (AID 602473). It is filed as functional. The conditions noted are these: read-out: EC50_Mean.
In test [14] the test system is HEK293. The test can be described thus: cells. The settings on record: Homo sapiens.
Test [15] relates to HEK293. The test can be described thus: cells. The conditions noted are these: Homo sapiens. The source holds these as a separate data set.
Test [16] concerns the target Estrogen receptor beta (Homo sapiens, UniProt Q92731). The test can be described thus: ERβ–SRC-3 coactivator interaction inhibitors, confirmation, orthogonal assay, biochemical, ELISA, streptavidin-HRP readout (AID 1060). A general note: ELISA stands for enzyme-linked immunosorbent assay.
Test [17] concerns the target DNA dC->dU-editing enzyme APOBEC-3G (Homo sapiens, UniProt Q9HC16). Briefly: Dose Response confirmation of small molecule APOBEC3G DNA Deaminase Inhibitors via a fluorescence-based single-stranded DNA deaminase assay. [Related pubchem assays (depositor defined):AID493012, AID493028]. It is filed as functional.
In test [18] the target is Voltage-gated N-type calcium channel alpha-1B subunit/Amyloid beta A4 precursor protein-binding family A member 1 (Homo sapiens, UniProt Q00975+Q02410). The test can be described thus: disruptors of Mint-PDZ/N-type channel peptide interaction – biochemical, HTRF, set 2, SAR follow-up (AID 434980). It is filed as functional. For orientation: Time-resolved FRET reads energy transfer from a long-lived donor to a nearby acceptor.

The target in test [19] is Paired box protein Pax-8 (Homo sapiens, UniProt Q06710). Briefly: inhibitors of PAX8-driven TPO luciferase reporter, dose response, RMG-I cells, cherry-pick (AID 687027).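 Also: luciferase reporter driven by Pax8 target thyroperoxidase promoter measured by SteadyGlo luminescence.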 It is filed as functional, cell-based. For orientation: Reporter assays use an easily measured gene product as a stand-in for the process of interest.
The nature of test [20]: NIH:OVCAR-3 ovarian cancer cell cytotoxicity, dose response, PAX8 inhibitor project, plate reader, dry powder samples (AID 743044). It is filed as functional, cell-based.
Test [21] in a line: cytotoxicity in OVCAR8 ovarian cancer cells, dose response, PAX8 project, cell-based, plate reader, dry powder samples (AID 743197). The conditions noted are these: OVCAR-8. It is filed as functional.

Sequence of DNA dC->dU-editing enzyme APOBEC-3G (Q9HC16 whole entry): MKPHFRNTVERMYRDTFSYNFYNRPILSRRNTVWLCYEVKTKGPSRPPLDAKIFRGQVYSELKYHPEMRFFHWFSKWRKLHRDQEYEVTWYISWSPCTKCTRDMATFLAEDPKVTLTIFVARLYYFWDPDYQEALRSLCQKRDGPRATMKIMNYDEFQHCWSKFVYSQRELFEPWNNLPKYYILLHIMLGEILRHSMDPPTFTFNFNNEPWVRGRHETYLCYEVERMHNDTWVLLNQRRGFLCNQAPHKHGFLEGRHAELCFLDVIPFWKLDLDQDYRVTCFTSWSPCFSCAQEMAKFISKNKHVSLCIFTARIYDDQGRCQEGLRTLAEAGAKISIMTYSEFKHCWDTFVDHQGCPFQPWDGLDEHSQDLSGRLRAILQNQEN
Sequence of Glucose-6-phosphate 1-dehydrogenase (P11413 whole entry): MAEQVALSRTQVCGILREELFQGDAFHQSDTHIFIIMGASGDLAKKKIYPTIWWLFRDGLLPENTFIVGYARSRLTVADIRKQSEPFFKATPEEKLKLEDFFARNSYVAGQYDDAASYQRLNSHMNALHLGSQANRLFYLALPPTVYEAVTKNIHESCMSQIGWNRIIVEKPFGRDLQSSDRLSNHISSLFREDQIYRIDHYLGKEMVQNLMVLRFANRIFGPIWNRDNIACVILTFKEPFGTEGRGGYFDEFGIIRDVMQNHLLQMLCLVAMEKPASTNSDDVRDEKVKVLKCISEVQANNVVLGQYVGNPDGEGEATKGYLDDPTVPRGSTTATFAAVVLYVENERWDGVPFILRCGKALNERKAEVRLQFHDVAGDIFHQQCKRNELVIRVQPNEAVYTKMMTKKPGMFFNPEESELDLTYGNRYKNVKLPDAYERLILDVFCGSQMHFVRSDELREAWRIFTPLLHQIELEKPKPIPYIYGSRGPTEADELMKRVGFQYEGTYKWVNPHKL

In the case of `Nc1c(C(=O)Nc2ccc(F)cc2)sc(=S)n1-c1ccccc1F`, in [1], the IC50 is > 80 µM (inactive).
For the compound `COc1cc(C2CC(=O)N3CN(Cc4ccccc4)CSC3=C2C#N)ccc1OCc1ccccc1` (stereo not given), the EC50 is > 79.4 µM (not active) in test [2]; > 79.4 µM (not active) in [3]; > 79.4 µM (not active) in test [4]; > 350 µM (not active) in test [5]; 40.3 µM (active) in test [6].
As for `CC(C)(C)n1ncc2c(=O)n(CC(=O)Nc3ccc(Cl)cc3)cnc21`, the EC50 in [7] was 4.08 µM (active).
`CCOc1ccc(N(CC(=O)Nc2cc(C)ccc2C)S(=O)(=O)c2c(C)nc(O)nc2O)cc1`: the IC50 in [8] was > 50 µM (inactive).
Take `COC(=O)CN1C(c2ccc(Cl)cc2)=Nc2ccc(Cl)cc2C1c1ccccc1` (stereo not given): in test [9], the CC50 is > 40 µM (active). The half-maximal activity concentration (AC50) (as a rule, the concentration giving half of the maximal activity seen) in test [10] was 4.24 µM (active). In addition, the EC50 in test [11] was 55.9 µM (inconclusive); in [13] it was > 53 µM (inactive); in test [14], > 59.6 µM (inactive); in test [15], > 59.6 µM (inactive). The IC50 in test [12] was > 47.1 µM (inactive).
For `N#Cc1cc2c(nc1SCc1ccccc1)CCC2`, the EC50 was 45.2 µM (not active) in test [2], 41 µM (not active) in test [3] and 56.6 µM (not active) in test [4]. For the same compound, the IC50 in [16] is 0.0254 µM (not active).
With `CCC1=NN(C(=O)Cc2ccc([N+](=O)[O-])cc2)C(O)(C(F)(F)F)C1` (stereo not given), the IC50 in test [8] is > 50 µM (inactive).
`CCO/C(O)=C1\C(C)=NC(=S)N(C(C)=O)C1c1ccc(OC)c(OC)c1` (stereo not given): the IC50 in test [8] was > 50 µM (inactive).
For `Nc1ccccc1SC(C[N+](=O)[O-])c1ccccc1` (stereo not given), the IC50 in [17] is 28.2 µM (active).
Take `O=C(CSc1nnc(CNC(=O)c2cccs2)o1)Nc1cccc(C(F)(F)F)c1`: the EC50 in [7] was 4.46 µM (active).
As to `COc1ccc(C2C=C(C34CC5CC(CC(C5)C3)C4)N=C(S)N2)cc1OC` (stereo not given), the EC50 in [14] and in test [15] was > 59.6 µM (inactive) each time.
For `CCC(C)NC(=O)CSc1ncnc2sccc12` (stereo not given), the IC50 in [8] was > 50 µM (inactive).
Turning to `CCOC(=O)C1=NN(c2cccc(Cl)c2)C2=NC(C)=C(C(=O)OC)C(c3cccs3)N12` (stereo not given), the EC50 in test [2], in [3] and in [4] was > 79.4 µM (not active) throughout.
As for `CC(C)(C)c1ccc(CNC(=O)c2cc(-c3ccco3)nc3ccccc23)cc1`, the IC50 in test [18] was 39.5 µM (active).
Regarding `O=C(N[C@@H]1C[C@H]1c1ccccc1)c1cc(-c2ccco2)nc2ccccc12`, the IC50 in test [18] was 46.4 µM (active).
With `Cc1noc(C)c1S(=O)(=O)Nc1ccc2c(c1)C(=O)N([C@H](C)CO)C[C@H](C)[C@@H](CN(C)C(=O)Nc1ccc(C(F)(F)F)cc1)OCCCC[C@H](C)O2`, the AC50 is 9.4 µM (active) in test [19], < 0.26 µM (active) in test [20] and > 70 µM (inactive) in test [21].
Turning to `COc1cc(/C=N/n2c(S)nnc2-c2ccccc2)cc(OC)c1O`, the IC50 in test [17] was > 100 µM (inactive).
